From the supplement of paper PMC10307832

Assays:
Assay in all cases: relative viability (nuclei count vs DMSO), 5 days (fraction); higher = more cells survive
XMD13-2 + Decitabine = compound: C1CC1C(=O)NC2=NNC3=C2C=CC(=C3)C4=CC(=CC=C4)C(=O)NC5CC5 [XMD13-2] + Nc1ncn([C@H]2C[C@H](O)[C@@H](CO)O2)c(=O)n1 [Decitabine] (partner 2 µM)
In short: (§1)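 Each reported value is a median over duplicate plates. It expresses relative viability: treated-well nuclei count divided by vehicle-well nuclei count. Lung cancer cell lines in 1536-well plates were dosed by pin tool a day after seeding, alone with one drug or with a fixed anchor-drug dose plus five library-drug doses (not always all listed) in √10 steps, and nuclei were counted after 5 days.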

ALW-II-49-7 + Crizotinib = compound: Cc1ccc(C(=O)Nc2cccc(C(F)(F)F)c2)cc1Nc1cncc(C(N)=O)c1 [ALW-II-49-7] + C[C@@H](Oc1cc(-c2cnn(C3CCNCC3)c2)cnc1N)c1c(Cl)ccc(F)c1Cl [Crizotinib] (partner 1 µM)
In short: as §1

ALW-II-49-7 + Trametinib = compound: Cc1ccc(C(=O)Nc2cccc(C(F)(F)F)c2)cc1Nc1cncc(C(N)=O)c1 [ALW-II-49-7] + CC(=O)Nc1cccc(-n2c(=O)n(C3CC3)c(=O)c3c(Nc4ccc(I)cc4F)n(C)c(=O)c(C)c32)c1 [Trametinib] (partner 0.02 µM)
In short: as §1

Dasatinib + Lapatinib = compound: Cc1nc(Nc2ncc(C(=O)Nc3c(C)cccc3Cl)s2)cc(N2CCN(CCO)CC2)n1 [Dasatinib] + CS(=O)(=O)CCNCc1ccc(-c2ccc3ncnc(Nc4ccc(OCc5cccc(F)c5)c(Cl)c4)c3c2)o1 [Lapatinib] (partner 2 µM)
In short: as §1

UMC-11
relative viability (XMD13-2 + Decitabine; first compound 0.05 µM): 0.62
relative viability (XMD13-2 + Decitabine; first compound 0.1581 µM): 0.585
relative viability (XMD13-2 + Decitabine; first compound 0.5 µM): 0.793
relative viability (XMD13-2 + Decitabine; first compound 1.581 µM): 0.625
relative viability (XMD13-2 + Decitabine; first compound 5 µM): 0.579
relative viability (ALW-II-49-7 + Crizotinib; first compound 0.08 µM): 0.531
relative viability (ALW-II-49-7 + Crizotinib; first compound 0.253 µM): 0.613
relative viability (ALW-II-49-7 + Crizotinib; first compound 2.53 µM): 0.755
relative viability (ALW-II-49-7 + Crizotinib; first compound 8 µM): 0.553
relative viability (ALW-II-49-7 + Trametinib; first compound 0.08 µM): 0.791
relative viability (ALW-II-49-7 + Trametinib; first compound 0.253 µM): 0.69
relative viability (ALW-II-49-7 + Trametinib; first compound 0.8 µM): 0.896
relative viability (ALW-II-49-7 + Trametinib; first compound 2.53 µM): 0.821
relative viability (ALW-II-49-7 + Trametinib; first compound 8 µM): 0.599
relative viability (Dasatinib + Lapatinib; first compound 0.005 µM): 0.877
relative viability (Dasatinib + Lapatinib; first compound 0.01581 µM): 0.702
relative viability (Dasatinib + Lapatinib; first compound 0.05 µM): 0.835
relative viability (Dasatinib + Lapatinib; first compound 0.1581 µM): 0.333
relative viability (Dasatinib + Lapatinib; first compound 0.5 µM): 0.377
